ChEMBL document CHEMBL6074632, “Next-generation EGFR tyrosine kinase inhibitors to overcome C797S mutation in non-small cell lung cancer (2019-2024)” (RSC Med Chem, 2024)

Columns and labels:
[1] = Inhibition of EGFR L858R/T790M double mutant (unknown origin); design: species or system Homo sapiens
[2] = molecular target: Epidermal growth factor receptor (Homo sapiens, UniProt P00533, C797S/L858R/T790M); experiment: Inhibition of EGFR L858R/T790M/C797S mutant (unknown origin)
[3] = Antiproliferative activity against mouse BaF3 cells harboring EGFR L858R/T790M double mutant assessed as inhibition of cell growth
[4] = PROTAC activity at CRBN/EGFR L858R/T790M double mutant in human HCC827 cells assessed as induction of EGFR degradation; assay type: cell-based
[5] = molecular target: von Hippel-Lindau disease tumor suppressor/Epidermal growth factor receptor (Homo sapiens, UniProt P00533+P40337, L858R); experiment: PROTAC activity at VHL/EGFR L858R mutant in human NCI-H3255 cells assessed as induction of EGFR degradation incubated for 24 hrs by immunoblotting analysis; assay type: cell-based
Chain of von Hippel-Lindau disease tumor suppressor/Epidermal growth factor receptor (P00533 25-1210 L858R limits assumed, stated change not applied): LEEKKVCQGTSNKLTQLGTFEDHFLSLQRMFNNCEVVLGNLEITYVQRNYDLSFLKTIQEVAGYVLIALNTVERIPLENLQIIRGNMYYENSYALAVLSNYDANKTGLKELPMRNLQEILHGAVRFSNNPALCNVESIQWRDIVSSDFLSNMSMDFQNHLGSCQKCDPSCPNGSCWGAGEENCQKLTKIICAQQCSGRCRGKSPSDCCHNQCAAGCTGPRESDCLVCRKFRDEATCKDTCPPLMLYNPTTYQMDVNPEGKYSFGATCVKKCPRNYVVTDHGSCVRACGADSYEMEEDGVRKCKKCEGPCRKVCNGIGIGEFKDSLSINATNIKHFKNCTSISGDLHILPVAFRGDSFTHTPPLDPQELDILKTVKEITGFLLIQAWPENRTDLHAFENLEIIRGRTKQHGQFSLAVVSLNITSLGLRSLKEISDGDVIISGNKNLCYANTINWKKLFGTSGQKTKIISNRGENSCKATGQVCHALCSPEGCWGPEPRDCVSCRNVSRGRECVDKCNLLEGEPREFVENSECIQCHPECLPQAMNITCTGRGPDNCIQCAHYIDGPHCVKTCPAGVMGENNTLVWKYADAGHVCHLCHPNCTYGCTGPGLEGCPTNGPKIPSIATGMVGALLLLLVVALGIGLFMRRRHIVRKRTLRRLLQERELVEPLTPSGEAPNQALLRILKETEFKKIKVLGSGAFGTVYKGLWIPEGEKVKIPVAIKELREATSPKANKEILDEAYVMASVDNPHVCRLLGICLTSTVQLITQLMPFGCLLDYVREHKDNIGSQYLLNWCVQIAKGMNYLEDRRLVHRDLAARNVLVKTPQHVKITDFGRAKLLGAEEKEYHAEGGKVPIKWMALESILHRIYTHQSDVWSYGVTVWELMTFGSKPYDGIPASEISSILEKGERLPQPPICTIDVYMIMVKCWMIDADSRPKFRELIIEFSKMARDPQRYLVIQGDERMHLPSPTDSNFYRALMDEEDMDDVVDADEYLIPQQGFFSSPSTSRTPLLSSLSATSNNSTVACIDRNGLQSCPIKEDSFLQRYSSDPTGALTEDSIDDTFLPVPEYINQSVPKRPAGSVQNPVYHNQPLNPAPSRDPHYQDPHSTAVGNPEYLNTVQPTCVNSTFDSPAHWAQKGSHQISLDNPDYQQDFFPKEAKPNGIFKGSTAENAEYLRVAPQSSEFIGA
Chain of von Hippel-Lindau disease tumor suppressor/Epidermal growth factor receptor (P40337 whole entry, stated change not applied): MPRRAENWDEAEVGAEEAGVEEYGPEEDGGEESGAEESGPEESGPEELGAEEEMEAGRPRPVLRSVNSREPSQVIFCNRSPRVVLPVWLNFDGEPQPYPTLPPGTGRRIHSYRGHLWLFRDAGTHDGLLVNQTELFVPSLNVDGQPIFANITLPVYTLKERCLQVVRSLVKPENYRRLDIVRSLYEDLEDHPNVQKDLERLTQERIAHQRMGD

[6] = tested on: BaF3; experiment: Antiproliferative activity against mouse BaF3 cells harboring EGFR C797S/T790M/del19 mutant assessed as growth inhibition incubated for 72 hrs by CellTiter-Glo assay; assay type: functional, cell-based; details: BaF3, 72 h
[7] = Antiproliferative activity against human NCI-H1975 cells harboring EGFR L858R/T790M double mutant assessed as inhibition of cell growth incubated for 72 hrs by CellTiter-Glo assay; assay type: functional, cell-based; details: NCI-H1975, 72 h
[8] = Oral bioavailability in rat; details: in vivo
[9] = Antiproliferative activity against human NCI-H1975 cells harboring EGFR L858R/T790M/C797S […] mutant assessed as inhibition of cell growth; assay type: functional, cell-based
[10] = Intrinsic clearance in human hepatocytes; assay type: ADME, cell-based, Hepatocyte
[11] = Intrinsic clearance in human liver microsomes; assay type: ADME, Microsome
[12] = Intrinsic clearance in rat liver microsomes; assay type: ADME, Microsome
[13] = tested on: BaF3; experiment: Antiproliferative activity against mouse BaF3 cells harboring EGFR L858R/T790M/C797S mutant assessed as growth inhibition incubated for 72 hrs by CellTiter-Glo assay; assay type: functional, cell-based; details: BaF3, 72 h
[14] = molecular target: Epidermal growth factor receptor (Homo sapiens, UniProt P00533, C797S/EX19DEL/T790M); experiment: Inhibition of EGFR C797S/T790M/Del19 mutant (unknown origin)
Chain of Epidermal growth factor receptor (Homo sapiens, UniProt P00533, C797S/EX19DEL/T790M) (P00533 whole entry, looked up, stated change not applied): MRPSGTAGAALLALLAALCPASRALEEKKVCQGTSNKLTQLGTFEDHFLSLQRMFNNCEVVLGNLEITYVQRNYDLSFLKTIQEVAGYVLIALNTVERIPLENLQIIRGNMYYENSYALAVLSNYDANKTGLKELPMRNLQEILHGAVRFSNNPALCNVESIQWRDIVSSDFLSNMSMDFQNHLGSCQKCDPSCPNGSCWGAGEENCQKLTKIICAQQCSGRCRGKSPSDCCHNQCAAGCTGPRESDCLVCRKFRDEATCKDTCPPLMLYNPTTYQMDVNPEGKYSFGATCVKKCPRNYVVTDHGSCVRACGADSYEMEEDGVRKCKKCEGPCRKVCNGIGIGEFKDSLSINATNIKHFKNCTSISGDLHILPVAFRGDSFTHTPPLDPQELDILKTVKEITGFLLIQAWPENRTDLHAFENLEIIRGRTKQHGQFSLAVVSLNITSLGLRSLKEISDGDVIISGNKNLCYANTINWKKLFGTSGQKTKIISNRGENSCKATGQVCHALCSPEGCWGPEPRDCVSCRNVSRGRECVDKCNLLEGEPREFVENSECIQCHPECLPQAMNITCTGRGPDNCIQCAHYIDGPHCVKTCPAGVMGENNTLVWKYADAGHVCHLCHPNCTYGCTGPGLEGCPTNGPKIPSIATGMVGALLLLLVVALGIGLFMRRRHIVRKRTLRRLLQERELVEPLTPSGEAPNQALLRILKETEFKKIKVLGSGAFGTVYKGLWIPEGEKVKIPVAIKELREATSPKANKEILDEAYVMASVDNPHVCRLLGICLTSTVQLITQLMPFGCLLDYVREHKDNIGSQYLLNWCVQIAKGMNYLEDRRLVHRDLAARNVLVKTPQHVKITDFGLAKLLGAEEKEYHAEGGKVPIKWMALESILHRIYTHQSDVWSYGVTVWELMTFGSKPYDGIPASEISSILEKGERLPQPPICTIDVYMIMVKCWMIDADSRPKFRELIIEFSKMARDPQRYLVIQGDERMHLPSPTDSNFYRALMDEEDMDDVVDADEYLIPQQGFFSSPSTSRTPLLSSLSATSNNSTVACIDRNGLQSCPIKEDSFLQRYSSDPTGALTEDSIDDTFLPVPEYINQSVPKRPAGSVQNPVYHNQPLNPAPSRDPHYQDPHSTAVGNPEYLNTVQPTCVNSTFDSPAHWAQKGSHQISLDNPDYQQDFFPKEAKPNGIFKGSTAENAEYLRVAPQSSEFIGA

[15] = molecular target: Epidermal growth factor receptor (Homo sapiens, UniProt P00533); experiment: Inhibition of wild type EGFR (unknown origin)
Chain of Epidermal growth factor receptor (Homo sapiens, UniProt P00533) (P00533 whole entry): as the sequence (P00533 whole entry, looked up, stated change not applied) above

[16] = tested on: NCI-H1975; experiment: Antitumor activity against human NCI-H1975 cells xenografted in mouse model assessed as tumor growth inhibition at 40 mg/kg, po relative to control; assay type: functional; details: read-out: TGI
[17] = tested on: NCI-H1975; experiment: Antitumor activity against human NCI-H1975 cells xenografted in mouse model assessed as tumor growth inhibition at 80 mg/kg, po relative to control; assay type: functional; details: read-out: TGI

Chain of Epidermal growth factor receptor (Homo sapiens, UniProt P00533, C797S/L858R/T790M) (P00533 25-1210 T790M/C797S/L858R limits assumed): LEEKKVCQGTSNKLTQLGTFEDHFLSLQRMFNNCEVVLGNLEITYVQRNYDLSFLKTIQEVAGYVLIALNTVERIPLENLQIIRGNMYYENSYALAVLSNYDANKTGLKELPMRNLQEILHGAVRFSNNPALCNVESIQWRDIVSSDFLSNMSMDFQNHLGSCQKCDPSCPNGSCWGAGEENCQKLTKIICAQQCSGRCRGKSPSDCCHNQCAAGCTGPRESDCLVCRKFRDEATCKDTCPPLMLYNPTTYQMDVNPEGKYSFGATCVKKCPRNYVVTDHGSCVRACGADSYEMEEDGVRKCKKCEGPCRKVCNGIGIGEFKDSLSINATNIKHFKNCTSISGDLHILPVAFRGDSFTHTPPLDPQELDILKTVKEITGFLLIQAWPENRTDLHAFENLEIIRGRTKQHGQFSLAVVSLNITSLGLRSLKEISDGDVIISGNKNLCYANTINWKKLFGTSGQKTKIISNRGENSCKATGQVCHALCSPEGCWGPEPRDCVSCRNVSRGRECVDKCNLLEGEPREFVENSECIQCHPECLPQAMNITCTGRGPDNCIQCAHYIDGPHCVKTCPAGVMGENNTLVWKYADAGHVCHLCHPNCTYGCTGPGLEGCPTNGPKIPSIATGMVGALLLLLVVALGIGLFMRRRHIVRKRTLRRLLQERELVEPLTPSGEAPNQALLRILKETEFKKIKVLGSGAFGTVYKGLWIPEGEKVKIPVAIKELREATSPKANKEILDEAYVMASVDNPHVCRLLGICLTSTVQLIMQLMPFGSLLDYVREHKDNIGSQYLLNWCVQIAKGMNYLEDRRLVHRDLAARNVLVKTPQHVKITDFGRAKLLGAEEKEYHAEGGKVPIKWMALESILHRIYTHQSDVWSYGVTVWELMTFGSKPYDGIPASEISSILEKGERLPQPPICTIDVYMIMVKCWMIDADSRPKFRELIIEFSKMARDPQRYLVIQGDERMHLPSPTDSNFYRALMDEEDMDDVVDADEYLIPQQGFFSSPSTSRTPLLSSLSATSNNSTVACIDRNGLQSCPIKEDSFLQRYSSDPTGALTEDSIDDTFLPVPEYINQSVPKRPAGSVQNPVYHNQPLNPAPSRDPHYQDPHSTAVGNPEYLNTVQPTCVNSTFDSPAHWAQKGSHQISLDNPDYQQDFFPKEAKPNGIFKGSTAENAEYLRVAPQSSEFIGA

`O=C(Nc1nccs1)C(c1cc(F)ccc1O)N1Cc2ccccc2C1=O` (centres undefined) showed an IC50 [1] of 3 nM.

In the case of `COc1cc2c(Nc3ccc(NC(=O)C(c4cc(F)ccc4F)N4Cc5ccccc5C4=O)cc3F)ncnc2cc1OCC1CCN(C)CC1` (centres undefined), the IC50 [2] is reported as 2.3 nM.

With `O=C1CCC(N2C(=O)c3cccc(NCCOCCOCCOCCN4CCN(c5ccc(-c6ccc7c(c6)C(=O)N(C(C(=O)Nc6nccs6)c6ccccc6)C7)cn5)CC4)c3C2=O)C(=O)N1` (centres undefined) the IC50 [3] was 96 nM.

Compound `COc1cc2ncnc(Nc3ccc(F)c(Cl)c3)c2cc1OCCCN1CCN(CCC(=O)NCCCCCCCCOc2cccc3c2C(=O)N(C2CCC(=O)NC2=O)C3=O)CC1` (centres undefined) has a DC50 [4] of 5 nM.

Work on `COc1cc(N2CCN(CCCCCCCC(=O)N[C@H](C(=O)N3C[C@H](O)C[C@H]3C(=O)N[C@@H](C)c3ccc(-c4scnc4C)cc3)C(C)(C)C)CC2)ccc1Nc1ncc(Cl)c(Nc2ccccc2P(C)(C)=O)n1` yielded a DC50 [5] of 8 nM.

`COc1cc(N2CCC(N3CCN(C)CC3)CC2)c(C)cc1Nc1ncc(Br)c(Nc2ccc3nccnc3c2P(C)(C)=O)n1` showed an IC50 [6] of 26.8 nM.

Work on `CC(C)c1cnc(N2CC(CS(C)(=O)=O)C2)c2cnc(Nc3ccnc(N4CC[C@@H](O)[C@@](C)(F)C4)n3)cc12` yielded an IC50 [7] of 4.8 nM and a bioavailability [8] of 2%.

`N#Cc1ccc(O)c(-c2nc(NCc3ncccn3)c3ccccc3n2)c1` showed an IC50 [9] of 1200 nM.

In the case of `CC(C)c1ccc(N2C[C@H](CS(C)(=O)=O)[C@H]2C)c2cnc(Nc3ccnc(N4CC[C@@H](O)[C@@](C)(F)C4)n3)cc12`, the CLint [10] is reported as 41 µL/min/1e6 cells, the IC50 [7] is reported as 1 nM and the bioavailability [8] is reported as 50%. For the same compound, the CLint [11] was 7.2 µL/min/mg and the CLint [12] was 43 µL/min/mg.

`CN1CCC(c2ccc(-c3ccc4c(c3)C(=O)N(C(C(=O)Nc3nccs3)c3cc(F)ccc3O)C4)cc2)CC1` (centres undefined) showed an IC50 [1] of 0.063 nM.

Work on `CC(C)c1ccc(N2CC(CS(C)(=O)=O)C2)c2cnc(Nc3ccnc(N4CC[C@@H](O)[C@@](C)(F)C4)n3)cc12` yielded an IC50 [7] of 2.7 nM and a bioavailability [8] of 85%.

In the case of `CN1CCN(c2ccc(Nc3ncc(Cl)c(Nc4ccccc4P(C)(C)=O)n3)cc2Br)CC1`, the IC50 [6] is reported as 90 nM and the IC50 [13] is reported as 120 nM.

Work on `Oc1ccccc1-c1nc(NCN2CCOCC2)c2ccccc2n1` yielded an IC50 [14] of 1730 nM and an IC50 [15] of 37100 nM.

With `Oc1ccccc1-c1nc(NCc2c[nH]cn2)c2ccccc2n1` the IC50 [14] was 4.84 nM and the IC50 [15] was > 50000 nM.

With `Cn1cnc(Nc2nc(-c3ccccc3O)nc3ccccc23)c1` the IC50 [14] was 3.38 nM and the IC50 [15] was > 50000 nM.

`[2H]C([2H])([2H])c1cc(Nc2ncc(Br)c(Nc3ccccc3S(=O)(=O)C3CC3)n2)ccc1N1CCN(C([2H])([2H])[2H])CC1` gave an IC50 [6] of 12 nM, an IC50 [13] of 16 nM and an inhibition in vivo at 40 mg/kg [16] of 75.1%. For the same compound, the IC50 [2] was 0.09 nM.

`Oc1ccc(Br)cc1-c1nc(NCc2ncccn2)c2ccccc2n1` gave an IC50 [9] of 12600 nM and an IC50 [2] of 440 nM.

For `Cc1cc(Nc2ncc(Br)c(Nc3ccccc3S(=O)(=O)C3CC3)n2)ccc1N1CCN(C)CC1`, the inhibition in vivo at 80 mg/kg [17] was 73.2%.

Work on `CO[C@@H]1CCN(c2nccc(Nc3cc4c(C(C)C)ccc(N5C[C@H](CS(C)(=O)=O)[C@H]5C)c4cn3)n2)C[C@@H]1F` [TIGOZERTINIB] yielded an IC50 [7] of 1.1 nM and a bioavailability [8] of 48%.
